Patent US11833229B2, “Labeling precursors with squaric acid coupling” (SCV—SpezialChemikalienVertrieb GmbH, priority 2019, dated 2023)
Values joined by “and” are separate entries in the source; they are usually repeats but may differ in a detail not shown here. Equal entries are not always repeated. Where two headings read alike, the source gives them in different places. One block for each molecule: values may come before it.

Tests used:
[1] = molecular target: T1, FAP (Homo sapiens, UniProt Q12884); assay: FAP IC50 using Z-Gly-Pro-7-amino-4-methylcoumarin (AMC); format: biochemical; settings: for Selectivity index (FAP/PREP): from IC50 FAP and IC50 PREP; for IC50: substrate Z-Gly-Pro-AMC
T1 sequence (Q12884 1-760): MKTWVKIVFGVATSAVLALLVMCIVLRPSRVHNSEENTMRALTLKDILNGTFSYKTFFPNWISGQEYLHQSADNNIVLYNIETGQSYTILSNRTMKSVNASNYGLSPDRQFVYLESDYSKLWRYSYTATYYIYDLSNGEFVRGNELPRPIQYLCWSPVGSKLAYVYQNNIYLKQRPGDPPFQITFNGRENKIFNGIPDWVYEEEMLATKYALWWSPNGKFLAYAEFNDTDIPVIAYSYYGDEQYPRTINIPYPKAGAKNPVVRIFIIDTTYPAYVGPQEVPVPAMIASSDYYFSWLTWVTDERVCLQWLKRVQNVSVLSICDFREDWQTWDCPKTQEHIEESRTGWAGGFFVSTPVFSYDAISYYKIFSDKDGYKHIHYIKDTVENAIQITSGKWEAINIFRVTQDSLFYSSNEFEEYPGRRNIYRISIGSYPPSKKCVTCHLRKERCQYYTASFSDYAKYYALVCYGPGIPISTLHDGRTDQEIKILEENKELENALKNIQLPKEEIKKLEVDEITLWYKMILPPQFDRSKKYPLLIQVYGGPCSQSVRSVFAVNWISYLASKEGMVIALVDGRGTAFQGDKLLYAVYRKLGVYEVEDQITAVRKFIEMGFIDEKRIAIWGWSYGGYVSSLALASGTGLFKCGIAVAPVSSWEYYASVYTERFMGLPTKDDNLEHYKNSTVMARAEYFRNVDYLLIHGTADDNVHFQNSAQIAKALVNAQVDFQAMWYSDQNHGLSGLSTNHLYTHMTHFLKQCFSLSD
Description: (§1) The FAP IC50 values were measured using Z-Gly-Pro-7-amino-4-methylcoumarin (AMC). The PREP IC50 values were determined using N-succinyl-Gly-Pro-AMC.

[2] = molecular target: T2, PREP (Homo sapiens, UniProt P48147); assay: PREP IC50 using N-succinyl-Gly-Pro-AMC; format: biochemical; settings: substrate N-succinyl-Gly-Pro-AMC
T2 sequence (P48147 1-710): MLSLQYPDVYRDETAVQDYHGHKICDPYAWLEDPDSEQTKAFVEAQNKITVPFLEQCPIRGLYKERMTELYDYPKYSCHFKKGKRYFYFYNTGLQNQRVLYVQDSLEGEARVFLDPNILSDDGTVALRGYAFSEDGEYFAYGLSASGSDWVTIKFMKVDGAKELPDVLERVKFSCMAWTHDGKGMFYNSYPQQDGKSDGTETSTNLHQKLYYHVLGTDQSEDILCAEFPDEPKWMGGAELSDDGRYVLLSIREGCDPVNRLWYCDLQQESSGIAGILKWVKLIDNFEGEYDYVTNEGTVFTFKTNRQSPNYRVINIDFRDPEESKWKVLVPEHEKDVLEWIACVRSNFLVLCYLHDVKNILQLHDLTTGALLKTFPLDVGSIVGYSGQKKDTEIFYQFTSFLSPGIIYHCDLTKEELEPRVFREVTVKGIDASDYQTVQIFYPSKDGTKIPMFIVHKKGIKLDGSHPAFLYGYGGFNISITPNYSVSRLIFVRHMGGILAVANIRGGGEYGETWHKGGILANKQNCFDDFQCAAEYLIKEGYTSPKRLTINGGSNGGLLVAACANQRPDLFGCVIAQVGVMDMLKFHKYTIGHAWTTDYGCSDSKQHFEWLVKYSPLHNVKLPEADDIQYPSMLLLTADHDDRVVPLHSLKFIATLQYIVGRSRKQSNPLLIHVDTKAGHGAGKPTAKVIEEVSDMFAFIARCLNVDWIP
Description: as §1

[3] = test system: LNCap cells; assay: In vitro IC50 of unlabeled compounds with LNCap cells; format: cell-based
Excerpt: Further compounds according to the invention are those of the DATA.QS.PSMA type, the structure of which corresponds to the other compounds listed, with the DATA chelator enabling simpler and milder labeling. In the synthesis shown in FIG. 37, a yield of about 70% is achieved. In the case of radioactive labeling with ^68Ga, a yield of more than 95% is achieved (FIG. 38).

[4] = test system: LNCaP tumor; assay: PET preclinical comparative tests of PSMA radiotracers (SUV); settings: 68Ga-labeled tracer; for SUV Nieren: kidneys (Nieren); for SUV Leber: liver (Leber)
[5] = test system: LNCaP tumor; settings: NMRI nu/nu nude, mouse, in vivo
[6] = test system: tumor tissue; assay: In vivo and ex vivo investigation of TRAP.QS.PSMA radiotracer; settings: ex vivo, compared to [68Ga]Ga-PSMA-11
Description: FIG. 31a-b, 32-36 show the synthesis and measurement results for radiolabeling, stability and in vivo investigations of the radiotracer [^68Ga]Ga-TRAP.QS.PSMA. […] The in vivo studies were carried out with ^68Ga and ^64Cu. From the images it can be seen that, compared to Examples 8 and 10, the accumulation in the kidneys is […] for both radiotracers.

[7] = test system: LNCaP tumor; assay: Biological distribution by extraction of organs (ex vivo), PSMA tracers; format: in vivo, NMRInu/nu nude mice; settings: for tumor activity (biological distribution): compared with 68Ga-PSMA-11 and 68Ga-PSMA-617
Excerpt: In addition, PET was used to carry out preclinical ex vivo tests with the radiotracers of type [^68Ga]Ga-DOTA.QS.PSMA, [^68Ga]Ga-PSMA-11 and [^68Ga] Ga-PSMA-617 on NMRInu/nu nude mice with an LNCap tumor. […] The results obtained underline those obtained in the in vivo tests.

[8] = PET scans of bone tracers in young healthy rats; format: in vivo, Wistar rats
Description: The tracer NOTA.QS.PAM according to the invention and the clinically established reference tracer DOTA^Zol were labeled with ^68Ga, injected into young healthy Wistar rats, followed by recording of PET scans at intervals of 5 min, 60 min and 120 min after injection.
Both tracers are characterized by renal excretion and low retention in the remaining tissue.

[9] = test system: tumor; assay: In vivo PET comparison of DATA.QS.PSMA with PSMA-11 (MIP, time/activity curves)
Excerpt: Furthermore, compounds of the type DATA.QS.PSMA were compared in vivo with PSMA-11 in the same animal model.

[10] = test system: tumor; assay: Ex vivo activities of 68Ga-DATA.QS.PSMA and 68Ga-PSMA-11; format: in vivo; settings: ± SD
Excerpt: The results of ex vivo investigations (FIGS. 41-43) are in agreement with the in vivo observations.

Compound: CN(CC(=O)O)C1(CCCCC(=O)NCCNc2c(NCCCCC(NC(=O)NC(CCC(=O)O)C(=O)O)C(=O)O)c(=O)c2=O)CN(CC(=O)O)CCN(CC(=O)O)C1 (stereo not drawn) [DATA.QS.PSMA]
IC50 [3]: 51.5 nM and 51.1 nM

Compound: N#C[C@@H]1CC(F)(F)CN1C(=O)CNC(=O)c1ccnc2ccc(OCCCCNc3c(NCCNC(=O)CN4CCN(CC(=O)O)CCN(CC(=O)O)CCN(CC(=O)O)CC4)c(=O)c3=O)cc12 [DOTA.QS.FAPi - uncomplexed]
Selectivity index (FAP/PREP) [1]: 6000
IC50 [1]: 0.9 ± 0.1 nM
IC50 [2]: 5400 ± 300 nM

Compound: O=C(O)CC[C@H](NC(=O)N[C@@H](CCCCNC(=O)[C@H](Cc1ccc2ccccc2c1)NC(=O)[C@H]1CC[C@H](CNC(=O)CN2CCN(CC(=O)O)CCN(CC(=O)O)CCN(CC(=O)O)CC2)CC1)C(=O)O)C(=O)O [PSMA-617]
IC50 ([3]; Homo sapiens): 15.1 nM
SUV Leber [5]: 0.29
SUV Nieren [5]: 0.27
SUV Tumor [5]: 0.73

Compound: O=C(O)CCC(NC(=O)NC(CCCCNc1c(NCCCOCCOCCOCCCNC(=O)CCP(=O)(O)CN2CCN(CP(=O)(O)CCC(=O)NCCCOCCOCCOCCCNc3c(NCCCCC(NC(=O)NC(CCC(=O)O)C(=O)O)C(=O)O)c(=O)c3=O)CCN(CP(=O)(O)CCC(=O)NCCCOCCOCCOCCCNc3c(NCCCCC(NC(=O)NC(CCC(=O)O)C(=O)O)C(=O)O)c(=O)c3=O)CC2)c(=O)c1=O)C(=O)O)C(=O)O.[68Ga+3] (stereo not drawn) [[^68Ga]Ga-TRAP.QS.PSMA]
accumulation in the kidneys [6]: noticeably decreased
accumulation in tumor tissue [6]: elevated

Compound: O=C(O)CCC(NC(=O)NC(CCCCNc1c(NCCNC(=O)CCC(C(=O)O)N2CCN(CC(=O)O)CCN(CC(=O)O)CCN(CC(=O)O)CC2)c(=O)c1=O)C(=O)O)C(=O)O.[68Ga+3] (stereo not drawn) [^68Ga-DOTA.QS.PSMA]
off-target activity in the kidneys ([7]; compared with 68Ga-PSMA-11): significantly lower
tumor activity (biological distribution) [7]: slightly lower or equal
tumor activity (biological distribution) ([7]; listed as [^68Ga]Ga-DOTA.QS.PSMA): slightly lower or the same
SUV Tumor [4]: 0.73

Compound: O=C(O)CN1CCN(CC(=O)O)CCN(CC(=O)NCCc2cncn2CC(O)(P(=O)(O)O)P(=O)(O)O)CCN(CC(=O)O)CC1.[68Ga+3] [^68Ga-DOTA^Zol, reference compound]
SUV femur ([8]; 68Ga-labeled, organ distribution, femur): 3.7±0.4

Compound: O=C(O)CN1CCN(CC(=O)O)CCN(C(CCC(=O)NCCNc2c(NCCC(O)(P(=O)(O)O)P(=O)(O)O)c(=O)c2=O)C(=O)O)CC1.[68Ga+3] (stereo not drawn) [^68Ga-NOTA.QS.PAM]
SUV femur ([8]; rat, in vivo): 4.5±0.2
renal excretion ([8]; rat, in vivo): slightly reduced

Next, values leading:

Selectivity index (FAP/PREP) [1]: 6714
IC50 [1]: 0.7 ± 0.1 nM
IC50 [2]: 4700 ± 300 nM
Compound: CN(CC(=O)O)C1(CCCCC(=O)NCCNc2c(NCCCCOc3ccc4nccc(C(=O)NCC(=O)N5CC(F)(F)C[C@H]5C#N)c4c3)c(=O)c2=O)CN(CC(=O)O)CCN(CC(=O)O)C1.[Ga+3] [DATA5m.QS.FAPi - natGa]

Selectivity index (FAP/PREP) [1]: 2113
IC50 [1]: 0.8 ± 0.2 nM
IC50 [2]: 1690 ± 90 nM
Compound: CN(CC(=O)O)C1(CCCCC(=O)NCCNc2c(NCCCCOc3ccc4nccc(C(=O)NCC(=O)N5CC(F)(F)C[C@H]5C#N)c4c3)c(=O)c2=O)CN(CC(=O)O)CCN(CC(=O)O)C1 [DATA^5m.QS.FAPi - uncomplexed]

SUV Nieren [4]: 0.43
SUV Leber [4]: 0.27
SUV Tumor [4]: 0.73
Compound: O=C(O)CCC(NC(=O)NC(CCCCNc1c(NCCNC(=O)CCC(C(=O)O)N2CCN(CC(=O)O)CCN(CC(=O)O)CCN(CC(=O)O)CC2)c(=O)c1=O)C(=O)O)C(=O)O (stereo not drawn) [DOTA.QS.PSMA]

SUV Nieren [4]: 4.71
SUV Leber [4]: 0.25
SUV Tumor [4]: 1.16
Compound: O=C(O)CCc1ccc(O)c(CN(CCN(CC(=O)O)Cc2cc(CCC(=O)NCCCCCC(=O)NCCCC[C@H](NC(=O)N[C@@H](CCC(=O)O)C(=O)O)C(=O)O)ccc2O)CC(=O)O)c1 [PSMA-11, reference compound]

accumulation in the tumor ([9]; MIP images): high accumulation
excretion via the kidneys ([9]; first hour, compared with [68Ga]-PSMA-11, time/activity curves): significantly faster
Ex vivo activity LN [10]: 0.35 ± 0.20 % ID/g
Ex vivo activity blood [10]: 0.50 ± 0.19 % ID/g
Ex vivo activity bone [10]: 0.15 ± 0.03 % ID/g
Ex vivo activity heart [10]: 0.17 ± 0.06 % ID/g
Ex vivo activity kidney left [10]: 6.59 ± 2.45 % ID/g
Ex vivo activity kidney right [10]: 6.23 ± 2.39 % ID/g
Ex vivo activity liver [10]: 0.21 ± 0.04 % ID/g
Ex vivo activity lung [10]: 0.59 ± 0.27 % ID/g
Ex vivo activity muscle [10]: 0.09 ± 0.05 % ID/g
Ex vivo activity salivary glands [10]: 0.19 ± 0.07 % ID/g
Ex vivo activity small intestine [10]: 0.31 ± 0.12 % ID/g
Ex vivo activity spleen [10]: 0.54 ± 0.22 % ID/g
Ex vivo activity tumor [10]: 4.65 ± 0.58 % ID/g
Compound: CN(CC(=O)O)C1(CCCCC(=O)NCCNc2c(NCCCCC(NC(=O)NC(CCC(=O)O)C(=O)O)C(=O)O)c(=O)c2=O)CN(CC(=O)O)CCN(CC(=O)O)C1.[68Ga+3] (stereo not drawn) [^68Ga.DATA.QS.PSMA]

Ex vivo activity LN [10]: 0.66 ± 0.10 % ID/g
Ex vivo activity blood [10]: 0.27 ± 0.03 % ID/g
Ex vivo activity bone [10]: 0.15 ± 0.04 % ID/g
Ex vivo activity heart [10]: 0.17 ± 0.03 % ID/g
Ex vivo activity kidney left [10]: 36.66 ± 5.05 % ID/g
Ex vivo activity kidney right [10]: 36.72 ± 4.33 % ID/g
Ex vivo activity liver [10]: 0.23 ± 0.04 % ID/g
Ex vivo activity lung [10]: 0.74 ± 0.04 % ID/g
Ex vivo activity muscle [10]: 0.11 ± 0.03 % ID/g
Ex vivo activity salivary glands [10]: 0.54 ± 0.11 % ID/g
Ex vivo activity small intestine [10]: 0.50 ± 0.14 % ID/g
Ex vivo activity spleen [10]: 3.12 ± 0.39 % ID/g
Ex vivo activity tumor [10]: 5.51 ± 0.38 % ID/g
Compound: O=C([O-])CN(CCN(CC(=O)[O-])Cc1cc(CCC(=O)NCCCCCC(=O)NCCCC[C@H](NC(=O)N[C@@H](CCC(=O)O)C(=O)O)C(=O)O)ccc1[O-])Cc1cc(CCC(=O)O)ccc1[O-].[68Ga+3].[OH3+] [^68Ga.PSMA 11, reference compound]
